How the values were obtained:
[1] = Storage stability of the precursor of formula II with or without a drying agent, degradation by 19F NMR; assay type: physicochemical
Procedure: To test the stability of the precursor of formula II when packed with a drying agent, a sample of the precursor was analysed by ^19F and ^1H measurements.
The following drying agents were used:
Molecular sieve: 0.4 nm, Merck, Art. 5708, beads about 2 mm, pore size 4A Silica: Kiselgel, Merck, product no. 1.01969.5000
The drying agents used in the tests are typical drying agents for removing water from solvents and desiccators. The drying agents were both dried at 120° C. for about 90 hours before use.
The storage conditions for the precursor together with a drying agent were tested by storing together in the bottom of a small sample glass (mixed together) placed on a shelf in the lab (i.e. at room temperature). Also some samples without drying agent were set up. The first analysis of the samples with solid product was performed after 3.5 months storage and a second analysis was carried out after 5 months storage.

[2] = Earlier stability testing of the compound of formula II at set storage temperatures; assay type: physicochemical
[3] = solid, stored in a small sample glass at room temperature
[4] = solid, stored in a small sample glass at room temperature, listed as precursor
[5] = stored in freezer, reference, no drying agent

With `CCOC(=O)[C@]1(NC(=O)OC(C)(C)C)C[C@@H](OS(=O)(=O)C(F)(F)F)C1` [PRECURSOR, 1-(N-(t-butoxycarbonyl)amino)-3-[((trifluoromethyl)sulfonyl)oxy]-cyclobutane-1-carboxylic acid ethyl ester] the “19F NMR results, degradation (mole %) after 3.5 months” value [1, 3] was 30.7 mole %, the “19F NMR results, degradation (mole %) after 3.5 months” value [1, 4] was “about 30 mole %” and the “19F NMR results, degradation (mole %) after 5 months” value [1, 3] was 96.6 mole %. The “19F NMR results, degradation (mole %) after 5 months” value [1, 4] was “about 97 mole %”, the “19F NMR results, degradation (mole %) after 3.5 months” value [1, 5] was 0.7 mole % and the “19F NMR results, degradation (mole %) after 5 months” value [1, 5] was 0.6 mole %. The “hygroscopicity (observation)” value [2] was “hygroscopic”, the “period over which the compound is stable” value ([2]; stability testing at 25° C.) was ~1 month and the “stability at storage conditions” value ([2]; storage between −20° C. and −5° C.) was “acceptable stability”.

From patent US20130217908A1, “STABILISATION OF RADIOPHARMACEUTICAL PRECURSORS” (GE HEALTHCARE LIMITED, priority 2010, published 2013)
